Tests used:
Assay type in all cases: in vivo
Abutilon theophrasti = assay: Experiment on weeding effect in post-emergence stage; details: dose 15 g a.i./ha, fresh weight control rate level
Outline: (§1)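 Greenhouse pot test; foliar spray at 2-3 leaves, 2 wk post-sowing; acetone/Tween 80/water with methyl oleate EC 1.5 liter/ha; 500–15 g a.i./ha; assessed at 3 wk; n=3.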

Eleusine indica = assay: as above; details: dose 15 g a.i./ha, fresh weight control rate level
Outline: as §1

Echinochloa crusgalli = assay: as above; details: dose 15 g a.i./ha, fresh weight control rate level
Outline: as §1

Setaria viridis = assay: as above; details: dose 15 g a.i./ha, fresh weight control rate level
Outline: as §1

Leptochloa chinensis = assay: as above; details: dose 15 g a.i./ha, fresh weight control rate level
Outline: as §1

Amaranthus retroflexus = assay: as above; details: dose 15 g a.i./ha, fresh weight control rate level
Outline: as §1

Digitaria sanguinalis = assay: as above; details: dose 15 g a.i./ha, fresh weight control rate level
Outline: as §1

Veronica didyma Tenore = assay: as above; details: dose 15 g a.i./ha, fresh weight control rate level
Outline: as §1

Galium aparine = assay: as above; details: dose 15 g a.i./ha, fresh weight control rate level
Outline: as §1

[1] = system: Echinochloa crusgalli, Scirpus juncoides, Bidens tripartita L. and Sagittaria trifolia; assay: Weed control effect evaluation in rice field; details: weeds collected from Heilongjiang Province of China
Description: Transplanted rice safety evaluation and weed control effect evaluation in rice field:
Rice field soil was loaded into a 1/1,000,000 ha pot. The seeds of Echinochloa crusgalli, Scirpus juncoides, and Bidens tripartita L. were sowed and gently covered with soil, then left to stand still in greenhouse in the state of 0.5-1 cm of water storage. The tuber of Sagittaria trifolia was planted in the next day or 2 days later. It was kept at 3-4 cm of water storage thereafter. The weeds were treated by dripping the WP or SC water diluents prepared according to the common preparation method of the compounds of the present invention with pipette homogeneously to achieve specified effective amount when Echinochloa crusgalli, Scirpus juncoides, and Bidens tripartita L. reached 0.5 leaf stage and Sagittaria trifolia reached the time point of primary leaf stage.
The fertility condition of Echinochloa crusgalli, Scirpus juncoides, Bidens tripartita L. and Sagittaria trifolia 14 days after the treatment of the compound of the invention and the fertility condition of rice 21 days after the treatment of the compound of the invention respectively with the naked eye. Evaluate the weed control effect with the above activity standard level. Many compounds show excellent activity and selectivity. […]

SMILES	weeding effect in post-emergence stage, Abutilon theophrasti (level) (Abutilon theophrasti)	weeding effect in post-emergence stage, Eleusine indica (level) (Eleusine indica)	weeding effect in post-emergence stage, Echinochloa crusgalli (level) (Echinochloa crusgalli)	weeding effect in post-emergence stage, Setaria viridis (level) (Setaria viridis)	weeding effect in post-emergence stage, Leptochloa chinensis (level) (Leptochloa chinensis)	weeding effect in post-emergence stage, Amaranthus retroflexus (level) (Amaranthus retroflexus)	weeding effect in post-emergence stage, Digitaria sanguinalis (level) (Digitaria sanguinalis)	weeding effect in post-emergence stage, Veronica didyma Tenore (level) (Veronica didyma Tenore)	weeding effect in post-emergence stage, Galium aparine (level) (Galium aparine)	response of the test weeds to common doses [1]
CC(C)=NOC(=O)C1(C)CC(c2cc(-n3c(=O)cc(C(F)(F)F)n(C)c3=S)c(F)cc2Cl)=NO1 (stereo not shown) [Compound 218]	5 (Level 5: growth control rate is above 85%)	5 (Level 5: growth control rate is above 85%)	5 (Level 5: growth control rate is above 85%)	5 (Level 5: growth control rate is above 85%)	5 (Level 5: growth control rate is above 85%)	5 (Level 5: growth control rate is above 85%)	5 (Level 5: growth control rate is above 85%)	5 (Level 5: growth control rate is above 85%)	5 (Level 5: growth control rate is above 85%)	–
CCOC(=O)c1cnn(C)c1S(=O)(=O)NC(=O)Nc1nc(OC)cc(OC)n1 [Pyrazosulfuron-ethyl]	–	–	–	–	–	–	–	–	–	resistant
